From the OPERA property sets (Mansouri et al. 2018)
Where a SMILES comes first, the peptide text is derived from it.

For `CCOc1cccc(CNc2[nH]cnc3ncnc2-3)c1`, the logP was 2.57.
For `Cc1ccc(Cc2c[nH]cn2)cc1C`, the logP was 2.72.
With `Cc1c(O)c(=O)ccn1CCCOC(=O)c1ccc(F)cc1` the logP was 1.47.
For `CCNC(=O)NS(=O)(=O)c1cnccc1NC1CCCCCCC1`, the logP was 3.57.
`Cc1cc(=O)oc2c1c(C)cc1occ(C)c12` gave a logP of 3.04.
With `CCCOc1ccc(CNc2[nH]cnc3ncnc2-3)cc1` the logP was 3.15.
`Cc1[nH]c2ccccc2c1Cc1n[nH]c(=S)n1-c1ccccc1` gave a logP of 2.55.
Molecule `N#CCCOC1Cc2c(O)cc(O)cc2OC1c1ccc(O)c(O)c1` (centres undefined) has a logP of 0.96.
For `CC(SSc1ncc[nH]1)c1ccccc1` (centres undefined), the logP was 3.39.
In the case of `O=C(O)CCCON=C(c1ccccc1)c1ccncn1`, the logP is reported as 1.95.
With `COc1ccc(F)cc1CNC1CCCNC1c1ccccc1` (centres undefined) the logP was 3.5.
In the case of `COP(=O)(OC)Oc1ccc(C#N)cc1`, the logP is reported as 0.84.
With `COC(=O)CCSc1ccc2nc(-c3ccc(N(C)C)cc3)cn2c1` the logP was 3.9.
Molecule `Cc1nc2ccccc2c(=O)n1CC(=O)NCc1ccccc1` has a logP of 1.78.
With `NC1CCN(c2nc3c(cc2F)c(=O)c(C(=O)O)cn3-c2ccc(F)cc2F)C1` (centres undefined) the logP was -0.46.
`Nc1nc(N)c2c(I)cccc2n1` gave a logP of 2.12.
Work on `O=[N+]([O-])c1cn(Cc2ccccc2)cn1` yielded a logP of 1.36.
Molecule `CCCCCCCCNCCO` has a logP of 2.75.
Work on `CC(=O)Nc1ccc(S(=O)(=O)Nc2nc(C)c(C)o2)cc1` yielded a logP of 0.46.
For `CS(=O)(=O)c1cccc2nc(N)nc(N)c12`, the logP was 0.63.
With `N=C1C=CC(=C(c2ccc(N)cc2)c2ccc(N)cc2)C=C1` the logP was -0.21.
Molecule `CC(C)OC(=O)C(=Cc1ccccc1)S(=O)(=O)c1ccc([N+](=O)[O-])cc1` has a logP of 3.62.
Molecule `C1CCC2OC2C1` (centres undefined) has a logP of 1.26.
Molecule `CC(=O)c1cccc(CNc2[nH]cnc3ncnc2-3)c1` has a logP of 1.73.
Molecule `CC(C)NC(=NC#N)NS(=O)(=O)c1cnccc1Nc1cccc(Cl)c1` has a logP of 2.14.
`COc1cc2c(c(OC)c1OC)-c1ccc(SC)c(=S)cc1C(NC(C)=O)CC2` (centres undefined) gave a logP of 1.75.
Work on `CC(C)(C)c1ccc(C(CCN2CCCC2)c2ccccc2)cc1` (centres undefined) yielded a logP of 6.72.
`CS(=O)(=O)CC(=O)C=NO` showed a logP of -0.69.
Work on `Cc1c(C)c2cc3c(C)coc3nc2oc1=O` yielded a logP of 2.25.
Work on `CC1CCC2OC2(C)C12CCC(C(C)(C)O)C2` (centres undefined) yielded a logP of 2.7.
Molecule `Brc1ccc2ccc3c(Br)ccc4ccc1c2c43` has a logP of 6.69.
`NC(=O)Cc1c[nH]c2ccccc12` gave a logP of 0.75.
For `COc1ccc(CCNCC(O)COc2ccc(-c3nc(CN4CCOCC4)c[nH]3)cc2)cc1OC` (centres undefined), the logP was 2.4.
Work on `CN1CCN(CCn2nnc3ccccc32)CC1` yielded a logP of 0.36.
In the case of `O=C(O)Cc1nn(Cc2nc3cc(C(F)(F)F)ccc3s2)c(=O)c2ccccc12`, the logP is reported as 2.37.
Work on `S=C=NC(c1ccccc1)c1ccccc1` yielded a logP of 5.09.
In the case of `Cc1cccc(CNc2[nH]cnc3ncnc2-3)c1`, the logP is reported as 2.62.
With `Cc1c(O)c(=O)ccn1CCCOC(=O)c1ccc(N(C)C)cc1` the logP was 1.66.
Molecule `Nc1nc(N)c2c([N+](=O)[O-])cccc2n1` has a logP of 1.19.
With `CC(=O)c1ccc([N+](=O)[O-])cc1O` the logP was 2.05.
`CCCCCCCCOC(=O)c1cccnc1` showed a logP of 4.71.
With `Nc1nnnn1-c1ccc(F)cc1` the logP was 0.75.
`CSCCC(N)C(=O)NC(CC(C)C)C(=O)O` (stereo not drawn) (H-Met-Leu-OH; configuration not given here) showed a logP of -1.84.
`CC(C)C(N)C(=O)NC(Cc1ccccc1)C(=O)NC(Cc1ccc(O)cc1)C(=O)O` (centres undefined) showed a logP of -1.5.
With `Cc1cccc(-n2nnnc2N)c1` the logP was 1.24.
Work on `O=C1N=C(N2CCOCC2)CN1Cc1ccccc1` yielded a logP of 0.5.
Work on `CC(CO)N(C)C` (centres undefined) yielded a logP of 0.16.
`CCN(CC)CC(=O)NCC(=O)Nc1c(C)cccc1C` gave a logP of 2.2.
`O=C(O)CCCCCON=C(c1cncnc1)c1cccc(C(F)(F)F)c1` showed a logP of 3.65.
In the case of `O=C1c2ccc(O)cc2OCN1CCO[N+](=O)[O-]`, the logP is reported as 1.63.
`Cc1oc2c(C)cc3c(C)cc(=O)[nH]c3c2c1C` showed a logP of 3.5.
For `Nc1nc(N)c2c(F)cccc2n1`, the logP was 1.19.
With `CC(C)CCNc1ncnc2nc[nH]c12` the logP was 2.51.
Molecule `COC(=O)c1ccc(OP(=O)(NC(C)C(=O)OC)OCC2C=CC(n3cc(C)c(=O)[nH]c3=O)O2)cc1` (centres undefined) has a logP of 1.01.
